# Test results: US8481481B2, “Peptides and their use as carriers into cancer cells” (Advanced Accelerator Applications S.A., priority 2008, dated 2013)
# Peptide text beside a SMILES is read from it. * marks the point of attachment. X1 = O=C(C[NH+]1CC[NH2+][Pt-2]1([Cl])[Cl])*
# Key:
# MCF-7 cells = assay: Quantitative determination by atomic absorption of cisplatin transported into tumour cells; format: cell-based, human
# Experimental: The target cells MCF-7 were trypsinized, washed twice with buffered solution (PBS) and treated with 50 μl of 35% HNO3 for 16 hours. The platin content was determined by subjecting the samples to atomic absorption with an Analyst 800 instrument, by Perkin-Elmer, Norwalk, Conn., USA, using the following parameters: pre-treatment temperature, 1300° C.; atomization temperature, 2200° C.; using as the matrix modifier a composition of 0.015 mg of […] with 0.01 mg of Mg(NO3)2. The measurements were performed using the “Zeeman-effect background” correction system with Pyrolytic graphite-coated THGA tube (Perkin Elmer) and an integrated Lvov-type platform was used for metal determination. As standard solution we used a 2.5% HNO3 solution (Spectrascan) to obtain three reference points on the calibration curve.
# Bax gene, normal cells = assay: Bax gene expression in normal cells (FIG. 2); format: cell-based
# From the text: FIG. 2 confirms the apoptotic action of the rMnSOD-Lp-CC complex on various cell lines.
# In the experiment, actin cDNA was inserted as control of quantitative DNA expression; to note that again in this case (a) indicates untreated cells, (b) indicates cells treated with the leader peptide of rMnSOD (b), and (c) indicates cells treated with the leader peptide conjugated to cisplatin.
# [1] = tested on: tumour cell lines (MCF7, M1735, MRC5 and A2780); assay: Immunocytochemistry with anti-leader peptide antibody on treated cell lines (FIG. 1); format: cell-based, human; conditions: immunohistochemical reaction, three hours of incubation
# Experimental: The target cells (MCF-7) in continuous culture, derived from a mammary tumour of human origin, were incubated for three hours in the presence or absence of: (a) 24-amino acid leader peptide of rMnSOD-Lp-CC not conjugated to any other molecules, (b) 24-amino acid leader peptide conjugated to cisplatin.
# After incubation, the cells were fixed with Zamboni fixative (solution composed of 4% paraformaldehyde+15% picric acid) for 60 minutes and washed with PBS. The cells were then maintained in PBS containing 0.3% hydrogen peroxide, with the aim of blocking endogenous peroxidases. The polyclonal antibody (anti-leader peptide of rMnSOD obtained from rabbit), diluted 1/200 was then added to the cells and left for 1 hour at ambient temperature. To develop the reaction, a DAKO SLAB Peroxidase K0679 kit was used.
# tumour cells = conditions: recent study, state of the art; cited from earlier work
molecule,measurement,setting,value
"N.N.[Cl][Pt][Cl] [Cisplatin, cisplatin]","quantity of Pt, MCF-7 Pellet","MCF-7 cells; MCF-7 Pellet, atomic absorption",2.3 ng-Pt ng Pt
same,"quantity of cisplatin, MCF-7 Solution","MCF-7 cells; MCF-7 Solution, atomic absorption",Cisplatin 8.7 μg/l
same,"quantity of Pt, MCF-7 Solution","MCF-7 cells; MCF-7 Solution, atomic absorption, value in brackets",(3.5 μg Pt)
CSCC[C@H](NC(=O)C[NH+]1CC[NH2+][Pt-2]1([Cl])[Cl])C(=O)N[C@@H](CC(C)C)C(=O)N[C@@H](CO)C(=O)N[C@@H](CCCNC(=N)N)C(=O)N[C@@H](C)C(=O)N[C@H](C(=O)N[C@@H](CS)C(=O)NCC(=O)N[C@H](C(=O)N[C@@H](CO)C(=O)N[C@@H](CCCNC(=N)N)C(=O)N[C@@H](CCC(N)=O)C(=O)N[C@@H](CC(C)C)C(=O)N[C@@H](C)C(=O)N1CCC[C@H]1C(=O)N[C@@H](C)C(=O)N[C@@H](CC(C)C)C(=O)NCC(=O)N[C@@H](Cc1ccc(O)cc1)C(=O)N[C@@H](CC(C)C)C(=O)NCC(=O)N[C@@H](CO)C(=O)N[C@@H](CCCNC(=N)N)C(=O)N[C@@H](CCC(N)=O)C(=O)O)[C@@H](C)O)C(C)C (some centres unmarked) [rMnSOD-Lp-CC] (X1-MLSRAVCGTSRQLAPALGYLGSRQ-OH),toxic reaction / Bax gene expression,"Bax gene, normal cells",does not induce any toxic reaction
MLSRAVCGTSRQLAPALGYLGSRQ [leader peptide of rMnSOD],quantity of cisplatin transported into cells relative to cisplatin alone,"MCF-7 cells; tumour cells, Table 1",double
same,penetration into tumour cells / cell damage,[1],penetrated tumour cells without damaging the cells
"LSA-type-MnSOD: manganese superoxide dismutase secreted by a liposarcoma cell line, 30 kDa (protein, UniProt P04179 25-222, looked up) Superoxide dismutase [Mn], …: KHSLPDLPYDYGALEPHINAQIMQLHHSKHHAAYVNNLNVTEEKYQEALAKGDVTAQIALQPALKFNGGGHINHSIFWTNLSPNGGGEPKGELLEAIKRDFGSFDKFKEKLTAASVGVQGSGWGWLGFNKERGHLQIAACPNQDPLQGTTGLIPLLGIDVWEHAYYLQYKNVRPDYLKAIWNVINWENVTERYMACKK",cytotoxicity to tumour cells,tumour cells,cytotoxic specifically and selectively to tumour cells
"rMnSOD: recombinant form of LSA-type-MnSOD produced by specific cDNA clones (protein, UniProt P04179 25-222, looked up) Superoxide dismutase [Mn], …: KHSLPDLPYDYGALEPHINAQIMQLHHSKHHAAYVNNLNVTEEKYQEALAKGDVTAQIALQPALKFNGGGHINHSIFWTNLSPNGGGEPKGELLEAIKRDFGSFDKFKEKLTAASVGVQGSGWGWLGFNKERGHLQIAACPNQDPLQGTTGLIPLLGIDVWEHAYYLQYKNVRPDYLKAIWNVINWENVTERYMACKK",cytotoxicity to tumour cells,tumour cells,retain the structural and oncotoxic properties of the native protein
